In publication PMC10499915 (Scientific Reports, 2023):
In brackets after ≈: the same amount, converted by molar mass. Where two headings read alike, the source gives them in different places. Square brackets hold non-standard residues; d marks the D form. Peptide text beside a SMILES is read from it. * marks the point of attachment. Palmitoyl = CCCCCCCCCCCCCCCC(=O)*; Aib = CC(C)(N)C(=O)O

Columns and labels:
[1] = 4h and 24 h incubation, different concentrations
HaCaT cell line = details: 24 h
Method: Cytotoxicity was measured by the MTT assay on human immortalized epidermal keratinocyte HaCaT cell line (DKFZ, Eppelheim, Germany). The HaCaT cells were grown in high-glucose Dulbecco’s modified Eagle’s medium (DMEM) (Sigma-Aldrich, Milan, Italy). DMEM medium was supplemented with 10% foetal bovine serum (FBS; Sigma, Milan, Italy), 2 mM glutamine (Sigma, Milan, Italy), 100 U/mL penicillin (Sigma, Milan, Italy) and 100 µg/mL streptomycin (Sigma, Milan, Italy). The cells were maintained at 37 °C in the presence of 5% CO2 and in a humidified incubator.
Cells were counted in a Burker-Türk chamber to prepare a suspension of 2 × 10^5 cells/ml in DMEM High Glucose Complete Medium (Sigma-Aldrich, Milan, Italy). 100 μL of this suspension was added to the wells of a 96-well flat-bottom transparent microtiter plate (Euroclone, Milan, Italy) specially treated for tissue culture. The plate was incubated for 24 h at 37 °C and 5% CO2 to allow the cells in each well to reach a semiconfluent state. The following day, serial dilutions (1:2) of the peptides, starting with 64 μM, were prepared in DMEM medium, and 100 μL of these solutions were used to replace the medium in the plate with HaCaT cells. The same amount of untreated DMEM high-glucose medium was used as a cell growth control. DMEM high-glucose complete medium (100 μL) was used as a negative control to check the sterility of the medium. The plate was sealed with Parafilm to minimize evaporation and incubated at 37 °C and 5% CO2 for 20 h. Then, 25 μL MTT (Sigma-Aldrich, Milan, Italy) dissolved in phosphate-buffered saline (PBS) was added to each well to a final concentration of 1 mg/mL MTT, and the plate was incubated for 4 h in the dark at 37 °C and 5% CO2.
At the end of incubation, 100 μL 10% (w/v) Igepal (Sigma-Aldrich, Milan, Italy) in 10 mM HCl was added to each well, and the plate was incubated overnight in the dark at 37 °C and 5% CO2. The absorbance of MTT at 570 nm was measured using a Nanoquant Infinite-M200Pro plate reader (Tecan, Männedorf, Switzerland). Student’s t-test was performed for all samples.

chymotrypsin = test system: T1, chymotrypsin; assay: Proteolytic stability with chymotrypsin; assay type: in vitro ADME; details: chymotrypsin (isolated enzyme) in buffer, after 90 min, Tris·HCl 50 mM pH 7.8, 37 °C; for remaining at 1.5 h, 0.625 mg/mL: 0.125 mg peptide, 1.25 µg enzyme, HPLC peak area (HPLC–MS), triplicates, read-out: percentage of intact peptide with chymotrypsin
T1 construct: purchased Sigma-Aldrich
Method: The stability of the peptides in the presence of chymotrypsin was monitored by HPLC–MS, analysing the fragments derived from the degradation of the peptide. All 20-mer analogues (a–f) are sensitive to chymotrypsin. The rate of peptide degradation was calculated as the percentage of intact peptide detected at defined time points. All peptides were mostly degraded within the first 15 min of incubation, with the exception of the lipopeptide e and the short peptide h. […] For peptide h, which was designed with an Aib residue to improve proteolytic resistance, 50% of the peptide was still intact after 90 min (Fig. 5A). The other peptides were cleaved on the C-terminal side of Leu21 or Trp23 as the first cleavage observed. Successive degradations involve Leu14 for all peptides (with the exception of a and h). Concerning 13-mer peptides (g and h), degradation at position 21 occurred only for g and not for the Aib containing peptide h, for which Leu14 is the sensitive point for chymotrypsin attack.
All the degradation experiments were executed in triplicates.

P.aeruginosa ATCC 27853 = assay type: cell-based, Pseudomonas aeruginosa; details: ATCC 27853, 18 h
Method: (§1) The bacterial strains used were Escherichia coli ATCC 25922, Staphylococcus aureus ATCC 25923, Klebsiella pneumoniae ATCC 700603, Acinetobacter baumannii ATCC 19606, Pseudomonas aeruginosa ATCC 27853 and Staphylococcus epidermidis ATCC 12228. The reference bacterial strains used were purchased from American Type Culture Collection (ATCC) (Manassas, Virginia, USA). They were grown overnight (o/n) at 37 °C in complete Müller-Hinton broth (MHB, Difco) medium with shaking (130 rpm). The day after, the overnight bacterial cultures were diluted in fresh MHB (300 μL o/n culture in 10 mL) and incubated at 37 °C with shaking (130 rpm) for approximately 2 h (mid-log phase) until reaching an optical density (OD) at 600 nm (OD600) ≈ 0.3.
(§2) Peptides diluted in MHB to a concentration of 128 μM were added to the first column of wells of a 96-well round-bottom microtiter plate (Sarstedt, Milan, Italy) and serially diluted (1:2) in a final volume of 50 μL MHB was added to the next wells. Then, a mid-log bacterial cultures (OD 600≈ 0.3) were diluted to 5 × 10^5 colony-forming units (CFU)/mL in MHB and 50 μL of this bacterial suspension was added to each well. In this way, the final bacterial concentration was reduced to 2.5 × 10^5 CFU/mL and the peptide concentration in the wells was also halved in a final volume of 100 μL (final bacteria load was 2.5 × 10^4 CFU/well). The same amount of untreated bacteria in MHB was used as a control for bacterial growth. […] MIC was determined by visual inspection at the end of incubation as the first clear well. Data are reported as moda of independent experiments repeated three times or four times in case of uncertain values.

K.pneumoniae ATCC 700603 = assay type: cell-based, Klebsiella pneumoniae; details: ATCC 700603, 18 h
Method: as §1, §2

S.epidermidis ATCC 12228 = assay type: cell-based, Staphylococcus epidermidis; details: ATCC 12228, 18 h
Method: as §1, §2

E.coli ATCC 25922 = assay type: cell-based, Escherichia coli; details: ATCC 25922, 18 h
Method: as §1, §2

S.aureus ATCC 25923 = assay type: cell-based, Staphylococcus aureus
Method: as §1, §2

A.baumanni ATCC 19606 = assay type: cell-based, Acinetobacter baumannii; details: ATCC 19606, 18 h
Method: as §1, §2

[2] = test system: ram red blood cells (RBCs); details: 4% v/v ram RBCs in PBS, 1 h, 37 °C, absorbance 540 nm, 100% = 1% Triton X-100; all concentrations tested; n = 3
Method: The lytic potential towards eukaryotic cell membranes was assessed by measuring the release of haemoglobin from commercial ram red blood cells (RBCs) (Microbiol s.r.l., Cagliari, Italy) after exposure to the peptides. First, erythrocytes were isolated by centrifugation, washed with PBS and then suspended at 8% (v/v) in PBS. Secondly, 100 µL erythrocytes suspension was added into each well of a 96-well microplate. Then, 100 µL peptide solution was added to each well at different concentrations (the final concentration of erythrocytes suspension was 4% v/v), and the plates were incubated for 1 h at 37 °C and centrifuged at 1000 g for 10 min. Finally, 100 µL aliquots of supernatant were transferred to fresh 96-well microplate, and the release of haemoglobin was monitored by measuring the absorbance at 540 nm with Tecan microplate reader (Tecan Trading AG, Switzerland). 0% and 100% haemolysis were determined in PBS and 1% Triton X-100, respectively.

[3] = human serum, 37 °C, preliminary
Method: The proteolytic stability of synthetic peptides was assessed using chymotrypsin (Sigma–Aldrich) and human serum (Sigma–Aldrich)[46]. The peptide (0.125 mg) was dissolved in the minimum amount (5 µl) of DMSO (dimethylsulfoxide) and then diluted (final volume: 50 µl) with Tris·HCl 50 mM, pH 7.8. Then, it was incubated with and without the enzyme solution (1.25 µg of enzyme in 150 µl buffer) at 37 °C for 24 h. After the workup procedures, the samples were analysed by RP-HPLC as described in the ‘peptide synthesis and characterization’ experimental section. A peptide not resistant to chymotripsin was used as a positive test. As a control, we used the 128-137 C-terminal portion of natural Endonuclease V. The peptide sequence is as follows: […]. All the degradation experiments were executed in triplicates.
Figure S10. […] The bars indicate the final time when the HPLC-MS signal of the peptides is still detectable in solution.

[4] = Hydrophobicity by RP-HPLC retention time; assay type: physicochemical; details: for Retention time tR: used as measure of hydrophobicity, RP-HPLC, Phenomenex Luna C18 (100 Å, 5µ), linear gradient 5%B to 95%B over 30 min, A 0.1% TFA in 9:1 water:acetonitrile, B 0.1% TFA in 9:1 acetonitrile:water, 1 mL/min, peptide 0.5 mg/mL in MeOH, UV 215 and 280 nm
Method: Peptide hydrophobicity was calculated as difference in retention times between peptide analogues b–h and peptide a. Each peptide was dissolved in MeOH to a concentration of 0.5 mg/mL and then subjected to RP-HPLC on an analytical Phenomenex Luna C18 (100 Å, 5µ) column using 0.1% TFA in 9:1 water:acetonitrile as solvent A, and 0.1% TFA in 9:1 acetonitrile:water as solvent B. The peptides were eluted using a linear gradient as follows: 5%B to 95%B over 30 min. The flow rate was 1 mL/min and the absorbance was measured at 215 nm and 280 nm. The retention time was recorded for each peptide.

[5] = test system: E. coli, A. baumannii, K. pneumoniae, P. aeruginosa, and S. epidermidis strains; assay type: cell-based; details: 18 h
Method: as §1, §2

[6] = Circular dichroism, helicity; assay type: physicochemical; details: CD in TFE; taken as suggesting aggregation (coiled-coil)
Method: The secondary structure of the peptides was investigated by circular dichroism (CD) spectroscopy in various environments, including 0.2 mM potassium-phosphate buffer (aqueous solution, pH 7), 100 mM sodium dodecyl sulphate (SDS), and 2,2,2-trifluoroethanol (TFE). As these peptides are active on membranes, we chose SDS, as SDS micelles represent a model mimicking the prokaryotic cell membrane. TFE, on the other hand, is a solvent that induces the formation of helical structures.
The electronic CD curves in the far-UV region (below 260 nm) were obtained on a Jasco (Tokyo, Japan) model J-1500 spectropolarimeter with a fused quartz cell of 0.02 cm pathlength (Hellma, Mühlheim, Germany). The values are expressed in terms of [θ]R, the molar ellipticity per residue (deg × cm^2/dmol). Spectra were recorded at room temperature in water, in spectrograde TFE (99.9% Acros Organics, Geel, Belgium) and 100 mM SDS solution at 3 × 10^−4 M peptide concentration. The final molar peptide-to-lipid ratio is 1:300.

[7] = S.aureus ATCC 25923, Mueller–Hinton broth, 18 h, 37 °C, 2.5 × 10^5 CFU/mL, visual, mode of three independent tests

Row | Compound | solubility in Müller-Hinton broth [1] | HC50 (cytotoxicity on HaCaT cells) (HaCaT cell line) | remaining at 1.5 h, 0.625 mg/mL (chymotrypsin) | metabolised at 1.5 h, 0.625 mg/mL (chymotrypsin; HPLC, read-out: percentage of peptide degraded by chymotrypsin) | MIC (P.aeruginosa ATCC 27853) | MIC (K.pneumoniae ATCC 700603) | MIC (S.epidermidis ATCC 12228) | MIC (E.coli ATCC 25922) | MIC (S.aureus ATCC 25923; ATCC 25923, 18 h) | MIC (A.baumanni ATCC 19606) | membranolytic (haemolytic) effect on erythrocytes [2] | time peptide withstands proteolytic degradation in serum (HPLC-MS signal still detectable) [3] | Retention time tR [4] | MIC, span over all tested bacterial strains except S. aureus [5] | MIC (S.aureus ATCC 25923; [7]) | proteolytic degradation in serum ([3]; HPLC-MS) | Hydrophobicity ΔtR ([4]; ΔtR = tR(x)−tR(a), relative to compound a, RP-HPLC C18, 5%–95%B over 30 min) | ratio between molar ellipticities at 222 and 208 nm [6]
1 | CCCCCCCCCCCCCCCC(=O)N[C@@H](CCCCN)C(=O)N[C@@H](CCCNC(=N)N)C(=O)N[C@@H](CC(C)C)C(=O)N[C@@H](CCCCN)C(=O)N[C@@H](CCCCN)C(=O)N[C@H](C(=O)NCC(=O)N[C@@H](CCCCN)C(=O)N[C@H](C(=O)N[C@@H](CC(C)C)C(=O)N[C@@H](CCCCN)C(=O)N[C@@H](Cc1c[nH]c2ccccc12)C(=O)N[C@H](C(=O)N[C@@H](C)C(=O)N[C@@H](CCCCN)C(=O)N[C@H](C(=O)N[C@H](C(=O)NCC(=O)N[C@@H](CO)C(=O)N[C@H](C(N)=O)[C@@H](C)CC)C(C)C)[C@@H](C)CC)[C@@H](C)CC)C(C)C)[C@@H](C)CC [e] (Palmitoyl-KRLKKIGKVLKWIAKIVGSI-NH2) | low solubility | < 32 µM | 65% | < 50% | >32 µM | >32 µM | >32 µM | >32 µM | >32 µM | >32 µM | significant lytic effect |  |  |  |  |  |  | 
2 | CC[C@H](C)[C@H](NC(=O)[C@H](Cc1c[nH]c2ccccc12)NC(=O)[C@H](CCCCN)NC(=O)C(C)(C)NC(=O)[C@@H](NC(=O)[C@H](CCCCN)NC(=O)CNC(=O)[C@@H](NC(=O)[C@H](CCCCN)NC(=O)[C@H](CCCCN)NC(=O)[C@H](CC(C)C)NC(=O)[C@H](CCCNC(=N)N)NC(=O)[C@H](CCCCN)NC(C)=O)[C@@H](C)CC)C(C)C)C(N)=O [h] (Ac-KRLKKIGKV[Aib]KWI-NH2) |  |  | 50% |  | 8 µM (≈ 13 µg/mL) | 8 µM (≈ 13 µg/mL) | 8 µM (≈ 13 µg/mL) | 4 µM (≈ 6.49 µg/mL) | >64 µM | 2 µM (≈ 3.25 µg/mL) | no membranolytic effect | up to 180 min | 11.7 min | 2 to 8 µM | > 64 µM |  |  | 
3 | Ac-KRLKKIGKVLKWI-NH2 [g] |  |  |  |  | 8 µM | 8 µM | 4 µM | 4 µM | >64 µM | 2 µM |  |  | 12.1 min | 2 to 8 µM | > 64 µM | rapidly degraded |  | 
4 | Ac-KRLKKIGKVLKWIAKIVGSI-NH2 [b] |  |  |  |  | 16 µM | 8 µM | 4 µM | 4 µM |  | 2 µM | significant lytic effect |  | 17.2 min |  | 4 µM |  | 4.0 | > 1
